Measurements from patent US20230165252A1, “ACTIVE COMPOUND COMBINATIONS” (Bayer Aktiengesellschaft, priority 2020, published 2023).
Several values for one entry are separate records, joined by “and”; a condition that tells them apart may be missing. Equal values may be shown once. Read-outs that look alike come from different tables or passages of the source.

What was measured:
Type in all cases: cell-based
Diaporthe citri = assay: in vitro-Test with Diaporthe citri (microtiter growth inhibition)
Experimental: (§1) If the actual fungicidal activity exceeds the calculated value, then the activity of the combination is super-additive, i.e. a synergistic effect exists. In this case, the efficacy, which was actually observed, must be greater than the value for the expected efficacy (E), that was calculated from the abovementioned formula.
(§2) Example: In Vitro-Test with Fungal Microorganisms
(§3) Wells of 96-well microtiter plates are filled with 10 μl of a preparation of test compound or compound combination in methanol+emulsifier alkylaryl-polyglycol-ether. Thereafter, the solvent is evaporated in a hood. At the next step, 100 μl of liquid potato dextrose medium is given into each well, that has been amended with an appropriate concentration of spores or mycelium suspension of the test fungus.
(§4) With the aid of a photometer, the extinction in all wells is measured at the wavelength of 620 nm.
(§5) The microtiter plates are incubated at 20° C. and 85% relative humidity. The inhibition of growth is determined again photometrically 3-5 days after the application. Efficacy is calculated in relation to the untreated control, 0% efficacy means fungal growth as high as in untreated control while 100% efficacy means no fungal growth is measured.

Alternaria alternate = assay: in vitro-Test with Alternaria alternate (microtiter growth inhibition)
Experimental: (§6) The degree of efficacy expressed in % is denoted: 0% means an efficacy, which corresponds to that of the control, while an efficacy of 100% means that no disease is observed.
as §1, §2, §3, §4, §5

Cercospora beticola = assay: in vitro-Test with Cercospora beticola (microtiter growth inhibition); settings: alone
Experimental: as §6, §1, §2, §3, §4, §5

Cordana musae = assay: in vitro-Test with Cordana musae (microtiter growth inhibition); settings: single substance
Experimental: as §6, §1, §2, §3, §4, §5

Botrytis cinerea = assay: in vitro-Test with Botrytis cinerea (microtiter growth inhibition); settings: applied alone
Experimental: as §6, §1, §2, §3, §4, §5

[1] = system: Ustilago segetum var. avenae; assay: in vitro-Test with Ustilago segetum var. avenae (microtiter growth inhibition); settings: single compound
Experimental: as §6, §1, §2, §3, §4, §5

Parastagonospora nodorum = assay: in vitro-Test with Parastagonospora nodorum (microtiter growth inhibition)
Experimental: as §6, §1, §2, §3, §4, §5

`N#Cc1ccccc1NC(=O)c1snc(Cl)c1Cl` [isotianil] showed an Efficacy (Diaporthe citri; 0.8 ppm) of 0%, an Efficacy (Diaporthe citri; 4 ppm) of 24% and an Efficacy (Diaporthe citri; 20 ppm) of 0%. The Efficacy (Diaporthe citri; 100 ppm) was 0%, the Efficacy (Diaporthe citri; applied alone, 0.8 ppm) was 12% and the Efficacy (Diaporthe citri; applied alone, 4 ppm) was 19% and 23%. The Efficacy (Diaporthe citri; applied alone, 20 ppm) was 5% and 14%, the Efficacy (Diaporthe citri; applied alone, 100 ppm) was 5% and the Efficacy % (Alternaria alternate; 4 ppm, alone) was 0%. For the same compound, the Efficacy % (Alternaria alternate; 20 ppm, alone) was 7%, the Efficacy % (Alternaria alternate; 100 ppm, alone) was 0% and the Efficacy % (Cercospora beticola; 0.8 ppm) was 17%. For the same compound, the Efficacy % (Cercospora beticola; 4 ppm) was 17%, the Efficacy % (Cercospora beticola; 20 ppm) was 12% and the Efficacy % (Cercospora beticola; 100 ppm) was 29%. It also gave an Efficacy (Cordana musae; 20 ppm) of 3% and an Efficacy (Cordana musae; 100 ppm) of 16%.

For `CC(O)(Cn1cncn1)c1ccc(Oc2ccc(Cl)cc2)cc1C(F)(F)F` (stereo not shown) [mefentrifluconazole], the Efficacy (Diaporthe citri; applied alone, 0.04 ppm) was 85%, the Efficacy (Diaporthe citri; applied alone, 0.2 ppm) was 100% and the Efficacy (Diaporthe citri; applied alone, 1.0 ppm) was 100%. It also gave an Efficacy % (Alternaria alternate; 0.008 ppm, alone) of 0%, an Efficacy % (Alternaria alternate; 1.0 ppm, alone) of 100% and an Efficacy % (Cercospora beticola; 0.04 ppm) of 100%. It also gave an Efficacy % (Cercospora beticola; 0.2 ppm) of 100%, an Efficacy (Cordana musae; 0.008 ppm) of 0% and an Efficacy (Cordana musae; 1.0 ppm) of 100%. The Efficacy (Botrytis cinerea; 0.04 ppm) was 36%, the Efficacy (Botrytis cinerea; 0.2 ppm) was 63% and the Efficacy (Botrytis cinerea; 1.0 ppm) was 100%. For the same compound, the Efficacy % ([1]; 0.008 ppm) was 5%, the Efficacy % ([1]; 0.2 ppm) was 67% and the Efficacy % ([1]; 1.0 ppm) was 100%. It also gave an Efficacy (Parastagonospora nodorum; 0.008 ppm) of 85%, an Efficacy (Parastagonospora nodorum; 0.04 ppm) of 97% and an Efficacy (Parastagonospora nodorum; 0.2 ppm) of 99%. The Efficacy (Parastagonospora nodorum; 1.0 ppm) was 100%.

Compound `CCCOc1nc2ccc(I)cc2c(=O)n1CCC` [proquinazid] has an Efficacy (Diaporthe citri; applied alone, 0.4 ppm) of 11%, an Efficacy (Diaporthe citri; applied alone, 2 ppm) of 0% and an Efficacy % (Alternaria alternate; 0.08 ppm, alone) of 0%. It also gave an Efficacy % (Alternaria alternate; 0.4 ppm, alone) of 0%, an Efficacy % (Alternaria alternate; 2 ppm, alone) of 0% and an Efficacy % (Alternaria alternate; 10 ppm, alone) of 0%. It also gave an Efficacy (Cordana musae; 0.080 ppm) of 0%, an Efficacy (Cordana musae; 0.4 ppm) of 0% and an Efficacy (Cordana musae; 2 ppm) of 0%. It also gave an Efficacy (Botrytis cinerea; 0.4 ppm) of 0%, an Efficacy (Botrytis cinerea; 2 ppm) of 0% and an Efficacy (Botrytis cinerea; 10 ppm) of 0%.

In the case of `OC(Cc1ccccc1Cl)(Cn1nc[nH]c1=S)C1(Cl)CC1` (stereo not shown) [prothioconazole], the inhibition of growth at 0.008 ppm (Alternaria alternate; Alternaria, 0.008 ppm, alone, read-out: Efficacy %) is reported as 0%, the inhibition of growth at 0.2 ppm (Alternaria alternate; Alternaria, alone, read-out: Efficacy %) is reported as 100% and the inhibition of growth at 1 ppm (Alternaria alternate; Alternaria, 1.0 ppm, alone, read-out: Efficacy %) is reported as 100%. It also gave an inhibition of growth at 0.04 ppm (Alternaria alternate; Alternaria, applied alone, 0.04 ppm, read-out: Efficacy) of 32%, an inhibition of growth at 0.2 ppm (Alternaria alternate; Alternaria, applied alone, read-out: Efficacy) of 99% and an inhibition of growth at 1 ppm (Alternaria alternate; Alternaria, applied alone, 1.0 ppm, read-out: Efficacy) of 100%. It also gave an inhibition of growth at 0.008 ppm (Cercospora beticola; Cercospora beticola, 0.008 ppm, read-out: Efficacy %) of 0%, an inhibition of growth at 0.04 ppm (Cercospora beticola; Cercospora beticola, 0.04 ppm, read-out: Efficacy %) of 88% and an inhibition of growth at 0.008 ppm (Cordana musae; Neocordana musae, 0.008 ppm, read-out: Efficacy) of 0%. For the same compound, the inhibition of growth at 0.04 ppm (Cordana musae; Neocordana musae, 0.04 ppm, read-out: Efficacy) was 64% and the inhibition of growth at 0.2 ppm (Cordana musae; Neocordana musae, 0.2 ppm, read-out: Efficacy) was 100%.

`Cc1cc(C)nc(Nc2ccccc2)n1` [pyrimethanil] showed an inhibition of growth at 4 ppm (Diaporthe citri; Diaporthe citri, applied alone, 4 ppm, read-out: Efficacy) of 94%, an inhibition of growth at 0.8 ppm (Alternaria alternate; Alternaria, 0.8 ppm, alone, read-out: Efficacy %) of 88% and an inhibition of growth at 4 ppm (Alternaria alternate; Alternaria, 4 ppm, alone, read-out: Efficacy %) of 99%. For the same compound, the inhibition of growth at 20 ppm (Alternaria alternate; Alternaria, 20 ppm, alone, read-out: Efficacy %) was 100%, the inhibition of growth at 0.8 ppm (Alternaria alternate; Alternaria, applied alone, 0.8 ppm, read-out: Efficacy) was 100% and the inhibition of growth at 4 ppm (Alternaria alternate; Alternaria, applied alone, 4 ppm, read-out: Efficacy) was 100%. It also gave an inhibition of growth at 20 ppm (Alternaria alternate; Alternaria, applied alone, 20 ppm, read-out: Efficacy) of 100%, an inhibition of growth at 0.8 ppm (Cercospora beticola; Cercospora beticola, 0.8 ppm, read-out: Efficacy %) of 0% and an inhibition of growth at 20 ppm (Cercospora beticola; Cercospora beticola, 20 ppm, read-out: Efficacy %) of 100%. For the same compound, the inhibition of growth at 0.8 ppm (Cordana musae; Neocordana musae, 0.8 ppm, read-out: Efficacy) was 9%, the inhibition of growth at 20 ppm (Cordana musae; Neocordana musae, 20 ppm, read-out: Efficacy) was 15% and the Efficacy (Botrytis cinerea; 0.8 ppm) was 96%. For the same compound, the Efficacy (Botrytis cinerea; 4 ppm) was 99%, the Efficacy (Parastagonospora nodorum; 0.8 ppm) was 100% and the Efficacy (Parastagonospora nodorum; 4 ppm) was 100%.

mancozeb [Compound 5.013] was tested, and the Efficacy (Diaporthe citri; 0.4 ppm) was 1%, the Efficacy (Diaporthe citri; 2 ppm) was 45% and the Efficacy (Diaporthe citri; 10 ppm) was 100%. The Efficacy (Diaporthe citri; applied alone, 0.080 ppm) was 0% and 3%, the Efficacy (Diaporthe citri; applied alone, 0.4 ppm) was 0% and the Efficacy (Diaporthe citri; applied alone, 2 ppm) was 52% and 53%. For the same compound, the Efficacy (Diaporthe citri; applied alone, 10 ppm) was 100%, the Efficacy (Alternaria alternate; applied alone, 2 ppm) was 6% and the Efficacy (Alternaria alternate; applied alone, 10 ppm) was 95%. The Efficacy % (Cercospora beticola; 0.4 ppm) was 0%, the Efficacy % (Cercospora beticola; 2 ppm) was 100% and the Efficacy % (Cercospora beticola; 10 ppm) was 100%. For the same compound, the Efficacy % ([1]; 0.08 ppm) was 1%, the Efficacy % ([1]; 2 ppm) was 5% and the Efficacy % ([1]; 10 ppm) was 100%.

In the case of propineb, the Efficacy (Diaporthe citri; 4 ppm) is reported as 23%, the Efficacy (Diaporthe citri; 20 ppm) is reported as 100% and the Efficacy (Diaporthe citri; 100 ppm) is reported as 97%. The Efficacy (Diaporthe citri; applied alone, 0.8 ppm) was 0%, the Efficacy (Diaporthe citri; applied alone, 20 ppm) was 98% and 100% and the Efficacy (Diaporthe citri; applied alone, 100 ppm) was 100%. For the same compound, the Efficacy % (Alternaria alternate; 0.8 ppm, alone) was 18% and 11%, the Efficacy % (Alternaria alternate; 4 ppm, alone) was 32% and 21% and the Efficacy % (Alternaria alternate; 20 ppm, alone) was 66% and 71%. It also gave an Efficacy % (Alternaria alternate; 100 ppm, alone) of 92%, an Efficacy (Alternaria alternate; applied alone, 4 ppm) of 56% and an Efficacy (Alternaria alternate; applied alone, 20 ppm) of 73%. The Efficacy (Alternaria alternate; applied alone, 100 ppm) was 96%, the Efficacy (Cordana musae; 0.8 ppm) was 0% and the Efficacy % ([1]; 0.8 ppm) was 4% and 6%. It also gave an Efficacy % ([1]; 20 ppm) of 100% and an Efficacy % ([1]; 100.00 ppm) of 79%.
